Reference: patent US6399662B1, “Method and composition for the treatment of diarrhea and gastrointestinal spasms” (University of Florida, priority 2000, dated 2002)
Where a name gives a salt, the structure may show the parent alone.

What was measured:
small intestine = settings: rats; previously reported; cited from earlier work
[1] = mice; HSPM formed by N-deethylation of DEHSPM; cited from earlier work
[2] = dog; compared with 2-3 weeks in mice; cited from earlier work
[3] = system: castor oil-induced diarrhea in rats; test: Castor oil-induced diarrhea in rats; assay type: in vivo, rat (Sprague-Dawley); settings: for weight loss: 30 min before castor oil 5 mL/kg, 6-h period; for stool output: 30 min before castor oil, 6-h collection period; for % reduction (weight loss) / % reduction (stool output): vs control (0 mg/kg); for % reduction (weight loss): (1.0-T/C) × 100
Protocol: Male Sprague-Dawley rats (350-400 g, Harlan Sprague-Dawley, Indianapolis, Ind.) were fasted overnight in hanging wire cages and allowed free access to water. A typical experiment involved 20 rats: 5 untreated controls and 5 pretreated with polyamine analogues at each of three doses (typically equivalent on a molar basis to 1, 5, 10, or 25 mg/kg of DEHSPM) as either a sc injection or a po gavage 30 min prior to castor oil. All animals were then challenged with castor oil (purchased from a local drugstore) as a gastric gavage of 5 mL/kg of body weight at t=0 and monitored for the onset and duration of diarrhea at 30-min intervals for a 6-h period during which they received no food or water (Eaker, E. Y.; Bixler, G. B.; Mathias, J. R., J. Pharm Exp. Ther. 1988, 246, 786-789). Onset of diarrhea for the control rats was between 30 and 90 min and lasted for at least 6 h. The animal weight and stool weight were recorded at 2, 4, and 6 h.

[4] = system: stress-induced irritable bowel syndrome in rats; test: Stress-induced irritable bowel syndrome in rats; assay type: in vivo, rat (Sprague-Dawley); settings: for stool output: 30 min before stress, 6-h collection period; for % reduction (stool output): vs control (0 mg/kg), (1.0-T/C) × 100
Protocol: Male Sprague-Dawley rats (200-350 g, Harlan Sprague-Dawley, Indianapolis, Ind.) were housed in hanging wire cages in a temperature- and humidity-controlled room with a 12hour light/dark cycle; the animals were fasted overnight (unless non-fasted rats were utilized in experiments involving PO administration) and allowed free access to water. Animal care and experimental procedures were approved by the Institutional Animal Care and Use Committee. A typical experiment involved 20 rats: 5 untreated controls and 5 pretreated with polyamine analogues at each of three doses as either a SC injection or a PO gavage 30 min prior to commencement of the stress. All animals were then housed in individual polycarbonate cages containing a clear 70×50 mm Pyrex crystallization dish inverted in the center. To begin the stress, water was added to each cage to within 0.5 cm of the top of the Pyrex dish. The fecal output of the animals was recorded at 30-min intervals for a 6-h period, during which they received no food or water. Stool output was expressed as the number of fecal pellets excreted over the 6-h collection period. Percent reduction was calculated by dividing the mean value from the treated animals (T) by the mean value from the control animals (C), subtracting the resulting quotient from 1.0, and multiplying by 100 [i.e., (1.0−T/C)×100].

[5] = sc 0.03125 mg/kg (0.0726 μmol/kg)

For `CCNCCCCNCCCCNCCCCNCC` [DEHSPM, N^1, N^14 diethylhomospermine], the “myoelectric activity and transit of the small intestine (in words)” value (small intestine) is given as “inhibited”.
For `NCCCCNCCCCNCCCCN` [HSPM, homospermine], the half life [1] is given as 2-3 weeks and the “half life (in words)” value [2] is given as “even longer”.
In the case of `CCNCCCN[C@H]1CC[C@H](NCCCNCC)CC1` [CHX(3,4,3)-trans, N,N′-Bis[3-(ethylamino)propyl]-trans-1,4-cyclohexanediamine tetrahydrochloride], the weight loss ([3]; sc 0.0078 mg/kg (0.0181 μmol/kg)) is reported as 8.8 ± 1.2 g of weight lost per 350 g of rat weight, the stool output ([3]; sc 0.0078 mg/kg) is reported as 3.6 ± 1.3 g of stool excreted per 350 g of rat weight and the “% reduction (weight loss)” value ([3]; sc 0.0078 mg/kg) is reported as 24%. For the same compound, the weight loss ([3]; sc 0.0156 mg/kg (0.036 μmol/kg)) was 3.1 ± 1.2 g of weight lost per 350 g of rat weight, the stool output ([3]; sc 0.0156 mg/kg) was 0.4 ± 0.9 g of stool excreted per 350 g of rat weight and the “% reduction (stool output)” value ([3]; sc 0.0156 mg/kg) was 92%. The “% reduction (weight loss)” value ([3]; sc 0.0156 mg/kg) was 73%, the weight loss [3, 5] was 4.2 ± 1.7 g of weight lost per 350 g of rat weight and the stool output ([3]; sc 0.03125 mg/kg) was 0 ± 0 g of stool excreted per 350 g of rat weight. The “% reduction (stool output)” value ([3]; sc 0.03125 mg/kg) was 100%, the “% reduction (weight loss)” value ([3]; sc 0.03125 mg/kg) was 64% and the weight loss ([3]; sc 0.125 mg/kg (0.29 μmol/kg)) was 4.1 ± 0.7 g of weight lost per 350 g of rat weight. For the same compound, the stool output ([3]; sc 0.125 mg/kg) was 0 ± 0 g of stool excreted per 350 g of rat weight, the “% reduction (stool output)” value ([3]; sc 0.125 mg/kg) was 100% and the “% reduction (weight loss)” value ([3]; sc 0.125 mg/kg) was 65%. The weight loss ([3]; sc 0.25 mg/kg (0.58 μmol/kg)) was 2.7 ± 0.7 g of weight lost per 350 g of rat weight, the stool output ([3]; sc 0.25 mg/kg) was 0 ± 0 g of stool excreted per 350 g of rat weight and the “% reduction (stool output)” value ([3]; sc 0.25 mg/kg) was 100%. The “% reduction (weight loss)” value ([3]; sc 0.25 mg/kg) was 77%, the weight loss ([3]; sc 0.5 mg/kg (1.16 μmol/kg)) was 2.9 ± 0.1 g of weight lost per 350 g of rat weight and the stool output ([3]; sc 0.5 mg/kg) was 0 ± 0 g of stool excreted per 350 g of rat weight. The “% reduction (stool output)” value ([3]; sc 0.5 mg/kg) was 100%, the “% reduction (weight loss)” value ([3]; sc 0.5 mg/kg) was 75% and the weight loss ([3]; sc 0.625 mg/kg (0.145 μmol/kg)) was 3.7 ± 0.8 g of weight lost per 350 g of rat weight. For the same compound, the stool output ([3]; sc 0.625 mg/kg (0.145 μmol/kg)) was 0 ± 0 g of stool excreted per 350 g of rat weight, the “% reduction (stool output)” value ([3]; sc 0.625 mg/kg (0.145 μmol/kg)) was 100% and the “% reduction (weight loss)” value ([3]; sc 0.625 mg/kg (0.145 μmol/kg)) was 68%. The weight loss ([3]; sc 0.99 mg/kg (2.3 μmol/kg)) was 2.7 ± 1.3 g of weight lost per 350 g of rat weight, the stool output ([3]; sc 0.99 mg/kg) was 0 ± 0 g of stool excreted per 350 g of rat weight and the “% reduction (stool output)” value ([3]; sc 0.99 mg/kg) was 100%. For the same compound, the “% reduction (weight loss)” value ([3]; sc 0.99 mg/kg) was 77%, the weight loss ([3]; sc 4.97 mg/kg (11.6 μmol/kg)) was 1.6 ± 1.1 g of weight lost per 350 g of rat weight and the stool output ([3]; sc 4.97 mg/kg) was 0 ± 0 g of stool excreted per 350 g of rat weight. For the same compound, the “% reduction (stool output)” value ([3]; sc 4.97 mg/kg) was 100%, the “% reduction (weight loss)” value ([3]; sc 4.97 mg/kg) was 86% and the weight loss ([3]; sc 24.87 mg/kg (57.8 μmol/kg)) was 0.8 ± 0.7 g of weight lost per 350 g of rat weight. For the same compound, the stool output ([3]; sc 24.87 mg/kg) was 0 ± 0 g of stool excreted per 350 g of rat weight, the “% reduction (stool output)” value ([3]; sc 24.87 mg/kg) was 100% and the “% reduction (weight loss)” value ([3]; sc 24.87 mg/kg) was 93%. For the same compound, the “stool output relative to controls (in words)” value ([3]; sc doses of 0.0156 mg/kg to 24.9 mg/kg, P<0.001 for all doses) was “significantly decreased stool output”, the “reduction in weight loss (in words)” value ([3]; sc, doses ranging from 0.0078 mg/kg to 24.9 mg/kg, all dose levels, P<0.005 to P<0.001) was “significant reduction in weight loss” and the “fecal output after oral administration (in words)” value ([4]; oral, doses ≧5 mg/kg, P≦0.001) was “diminished fecal output”. The “stool output” value [4, 5] was 5.4 ± 2.1 number of fecal pellets, the “% reduction (stool output)” value ([4]; sc 0.03125 mg/kg) was 52.2% and the “stool output” value ([4]; sc 0.0625 mg/kg (0.145 μmol/kg)) was 2.2 ± 1.3 number of fecal pellets. For the same compound, the “% reduction (stool output)” value ([4]; sc 0.0625 mg/kg) was 80.5%, the “stool output” value ([4]; sc 0.125 mg/kg (0.29 μmol/kg)) was 0.6 ± 0.9 number of fecal pellets and the “% reduction (stool output)” value ([4]; sc 0.125 mg/kg) was 94.7%. For the same compound, the “stool output” value ([4]; sc 0.25 mg/kg (0.58 μmol/kg)) was 0 ± 0 number of fecal pellets, the “% reduction (stool output)” value ([4]; sc 0.25 mg/kg) was 100% and the “stool output” value ([4]; sc 0.5 mg/kg (1.16 μmol/kg)) was 0 ± 0 number of fecal pellets. The “% reduction (stool output)” value ([4]; sc 0.5 mg/kg) was 100%, the “stool output” value ([4]; sc 0.99 mg/kg (2.3 μmol/kg)) was 0 ± 0 number of fecal pellets and the “% reduction (stool output)” value ([4]; sc 0.99 mg/kg) was 100%. For the same compound, the “reduction in fecal output (in words)” value ([4]; sc, doses ranging from 0.03 mg/kg to 0.99 mg/kg, all dose levels, P<0.001) was “significant reduction in fecal output”.
